Values quoted from earlier work as cited in patent US7838281B2, “Sulfide bath” (Soothing Sulfur Spas, LLC, priority 2007, dated 2010).

Conditions: aqueous solution

Row | pK for the HCO3^−/CO2 | Structure (SMILES) | pK for the HS^−/S^−2
1 | 6.2 | O=C(O)O [HCO3^−] | –
2 | – | S [HS^−] | 14
